Test results taken from patent publication US20260285849A1, “METHYLOPHIOPOGONONE A DERIVATIVE, AND PREPARATION AND USE THEREOF” (INSTITUTE OF MATERIA MEDICA, CHINESE ACADEMY OF MEDICAL …, priority 2022, published 2026).

Assays:
Assay type in all cases: in vivo
[1] = tested on: mice with hypertensive heart disease induced by angiotensin II (AngII); assay: AngII-induced hypertensive heart disease mouse model: serum BNP (ELISA)
Procedure: (§1) After male C57BL/6 mice were acclimated to the environment, they were randomly divided into 10 groups, namely the blank control group, the AngII model group, the AngII+telmisartan 10 mg/kg positive control group, the AngII+spironolactone 20 mg/kg positive control group, the AngII+Formula I (0.1, 0.5, 2 mg/kg) groups, and the AngII+Formula II (0.1, 0.5, 2 mg/kg) groups. The mice in the drug administration groups were intragastrically administered the corresponding doses of Formula I and Formula II compounds once a day at the same time. The mice in the positive control groups were intragastrically administered the corresponding doses of telmisartan and spironolactone once a day. The mice in the blank control group and the model group were given the same amount of solvent (0.5% CMC-Na solution). The administration volume was 10 mL/kg, and the administration was continuous for 14 days. From the 1st to the 13th day of drug administration, AngII modeling was carried out. The mice in the blank control group were subcutaneously injected with normal saline, and the mice in the other groups were subcutaneously injected with 1.44 mg/kg of AngII (modeling was carried out 2 h after drug administration), for a total of 13 times. Detection of myocardial hypertrophy/heart failure biomarkers: After the experiment, the animals were sacrificed by enucleation to obtain blood. The blood was left to stand at room temperature for 2 hours, and then centrifuged at 3500 rpm for 20 minutes to separate the serum. The content of serum BNP was determined according to the instructions of the ELISA kit.

[2] = tested on: mice with hypertensive heart disease induced by angiotensin II (AngII); assay: AngII-induced hypertensive heart disease mouse model: serum cTn-T and CK-MB (ELISA)
Procedure: After male C57BL/6 mice were acclimated to the environment, they were randomly divided into 10 groups, namely the blank control group, the AngII model group, the AngII+telmisartan 10 mg/kg positive control group, the AngII+spironolactone 20 mg/kg positive control group, the AngII+Formula I (0.1, 0.5, 2 mg/kg) groups, and the AngII+Formula II (0.1, 0.5, 2 mg/kg) groups. The mice in the drug administration groups were intragastrically administered the corresponding doses of Formula I and Formula II compounds once a day at the same time. The mice in the positive control groups were intragastrically administered the corresponding doses of telmisartan and spironolactone once a day. The mice in the blank control group and the model group were given the same amount of solvent (0.5% CMC-Na solution). The administration volume was 10 mL/kg, and the administration was continuous for 14 days. From the 1st to the 13th day of drug administration, AngII modeling was carried out. The mice in the blank control group were subcutaneously injected with normal saline, and the mice in the other groups were subcutaneously injected with 1.44 mg/kg of AngII (modeling was carried out 2 h after drug administration), for a total of 13 times. Detection of serum biomarkers of myocardial injury: After the experiment, the animals were sacrificed by enucleation to obtain blood. The blood was left to stand at room temperature for 2 hours, and then centrifuged at 3500 rpm for 20 minutes to separate the serum. The contents of serum cardiac troponin cTn-T and myocardial enzyme CK-MB were determined according to the instructions of the ELISA kit.

[3] = tested on: mice with hypertensive heart disease induced by angiotensin II (AngII); assay: AngII-induced hypertensive heart disease mouse model: serum TNF-α (ELISA)
Procedure: as §1, with “serum inflammatory factors:” for “myocardial hypertrophy/heart failure biomarkers:”, “TNF-α” for “BNP”

[4] = tested on: mice with hypertensive heart disease induced by angiotensin II (AngII); assay: AngII-induced hypertensive heart disease mouse model: serum aldosterone (ALD) (ELISA)
Procedure: as §1, with “serum aldosterone (ALD) level:” for “myocardial hypertrophy/heart failure biomarkers:”, “ALD” for “BNP”

[5] = 0.1 mg/kg intragastric once a day 14 days
[6] = 0.5 mg/kg intragastric once a day 14 days
[7] = 2 mg/kg intragastric once a day 14 days
[8] = 20 mg/kg intragastric once a day 14 days
[9] = 10 mg/kg intragastric once a day 14 days

SMILES	BNP [1, 5] [pg/mL]	BNP [1, 6] [pg/mL]	BNP [1, 7] [pg/mL]	CK-MB [2, 5] [ng/mL]	cTn-T [2, 5] [ng/L]	CK-MB [2, 6] [ng/mL]	cTn-T [2, 6] [ng/L]	CK-MB [2, 7] [ng/mL]	cTn-T [2, 7] [ng/L]	TNF-α [3, 5] [ng/L]	TNF-α [3, 6] [ng/L]	TNF-α [3, 7] [ng/L]	ALD [4, 5] [pg/mL]	ALD [4, 6] [pg/mL]	ALD [4, 7] [pg/mL]	other results
O=c1c(Cc2ccc3c(c2)OCO3)coc2cc(O)cc(O)c12 [Formula I]	112.93 ± 17.57	117.59 ± 13.78	102.97 ± 5.56	15.73 ± 1.79	167.25 ± 24.56	15.17 ± 1.63	165.79 ± 23.78	15.72 ± 1.89	164.52 ± 19.68	706.64 ± 91.15	699.02 ± 55.58	634.24 ± 98.58	206.80 ± 16.10	192.69 ± 14.38	199.41 ± 31.27	–
CC(=O)S[C@@H]1CC2=CC(=O)CC[C@]2(C)[C@H]2CC[C@@]3(C)[C@@H](CC[C@@]34CCC(=O)O4)[C@H]12 [Spironolactone, reference compound]	–	–	–	–	–	–	–	–	–	–	–	–	–	–	–	BNP [1, 8]: 129.92 ± 15.60 pg/mL; CK-MB [2, 8]: 18.86 ± 1.40 ^ ng/mL; cTn-T [2, 8]: 169.17 ± 21.95 ng/L; TNF-α [3, 8]: 758.49 ± 72.35 ng/L; ALD [4, 8]: 209.03 ± 25.11 pg/mL
CCCc1nc2c(C)cc(-c3nc4ccccc4n3C)cc2n1Cc1ccc(-c2ccccc2C(=O)O)cc1 [Telmisartan, reference compound]	–	–	–	–	–	–	–	–	–	–	–	–	–	–	–	BNP [1, 9]: 96.84 ± 7.34 pg/mL; CK-MB [2, 9]: 12.72 ± 1.09 ng/mL; cTn-T [2, 9]: 134.07 ± 17.50 ng/L; TNF-α [3, 9]: 616.87 ± 70.42 ng/L; ALD [4, 9]: 162.74 ± 7.38 pg/mL
Cc1c(O)cc(O)c2c(=O)c(Cc3ccc4c(c3)OCO4)coc12 [Formula II, 3-(benzo[d][1,3]dioxol-5-ylmethyl)-5,7-dihydroxy-8-methyl-4H-chromen-4-one]	103.21 ± 16.09	101.08 ± 9.09	91.67 ± 15.39	15.36 ± 2.41	153.56 ± 13.05	14.07 ± 1.33	145.15 ± 15.79	13.39 ± 2.57	136.64 ± 18.24	645.36 ± 87.50	671.09 ± 80.55	627.56 ± 98.89	186.44 ± 21.59	177.28 ± 21.57	185.89 ± 12.61	–
